{
  "source": "patent US20250009696A1",
  "about": "“METHODS OF CANCER TREATMENT VIA REGULATED FERROPTOSIS” (Memorial Sloan Kettering Cancer Center, priority 2017, published 2025)",
  "key": {"[1]": {"tested_on": "cells treated with FAC and BSO", "assay": "Spreading of ferroptosis, cell rounding and calcium signal with inhibitors or osmoprotectants", "assay_type": "cell-based", "experimental": "FIG. 3A depicts images that show cell colony prior to (left) and 12 hours after (right) treatment with liproxstatin-1. Note cell death involving wave-like spreading that was induced by FAC and BSO, and started prior to liproxstatin-1 addition, was inhibited, as cells that were alive (bottom right half of colony) stayed alive for 12 hours.\nRight images show computational quantifications of the spreading of cell rounding (top), which remains significant in the presence of PEG1450 (***P=0.004) (see histogram, bottom). Cells are pseudocolored in top image to represent the relative timing of cell rounding.\nRelative times are shown as minutes (min).\nIt was observed that ferroptosis involves a pore-forming activity and, also, a spreading activity. […] As cell rounding or swelling may be associated with calcium influx into cells, cells expressing the genetically-encoded calcium sensor GCaMP, which emits GFP fluorescence upon calcium exposure, were treated with FAC and BSO to induce ferroptosis in the presence of PEG3350."}, "[2]": {"tested_on": "cells treated with FAC and BSO", "assay": "Cell swelling and cell lysis (LDH release) in FAC and BSO-induced ferroptosis", "assay_type": "cell-based", "details": "for cell lysis / cell rupture (release of lactate dehydrogenase, LDH): 48 hours of treatment with FAC and BSO (400 μM), osmoprotectant 30 mM", "experimental": "The effect on cell lysis is shown by reduced release of lactate dehydrogenase (LDH), a measure of necrosis.\nTo investigate if the ferroptotic rupture of cells might be an event that is regulated by a pore, experiments were performed with osmo-protectants in the cell culture medium. Osmo-protectants are large osmolytes that when added to sufficient concentrations outside of cells (30 mM), buffer potential ion imbalances caused by pore formation that would otherwise lead to membrane rupture. The loss of ion and small molecule balances across the plasma membrane due to the opening of a pore would lead to hypo-osmotic stress due to the large molecules and organelles that cannot cross the intact membrane.\n(§1) The use of osmo-protectants (FIG. 1B) of increasing sizes can indicate the presence of pores in the membrane that would be required for cell rupture."}, "HT1080 cells": {"tested_on": "HT1080 cells", "assay": "Cell rupture in response to other inducers of ferroptosis with osmoprotectants", "assay_type": "cell-based", "details": "necrotic cell death induced by hydrogen peroxide, FIG. 1F", "from_the_text": "as §1"}, "[3]": {"tested_on": "LNCAP prostate cancer cells", "assay": "Western blot of PSMA and AR expression after enzalutamide exposure in vitro", "assay_type": "cell-based", "details": "10 μM continuously for 15 days", "from_the_text": "At the conclusion of exposure, cells were collected and the expression levels of PSMA and AR were examined via Western blot."}, "LNCAP xenografts": {"tested_on": "LNCAP xenografts", "assay": "PSMA expression in xenografts after daily enzalutamide", "assay_type": "in vivo, mice", "details": "10 mg/kg/day, oral gavage"}, "[4]": {"tested_on": "LNCAP-AR prostate cancer cells", "assay": "Western blot of PSMA and AR expression after enzalutamide exposure in vitro", "assay_type": "cell-based", "details": "10 μM over 15 days"}, "[5]": {"tested_on": "PC-3 prostate cancer cells", "assay": "Western blot of PSMA and AR expression after enzalutamide exposure in vitro", "assay_type": "cell-based", "details": "10 μM for 15 days"}, "[6]": {"assay": "Computational analysis of cell death spreading (time-lapse microscopy, random trials)", "assay_type": "cell-based", "details": "experimentally-induced apoptosis; cell line not stated", "experimental": "Nuclei are circled and color-coded to represent the relative timing of cell death, determined by time-lapse microscopy. The relative positioning of cell deaths occurring in successive frames of a time-lapse movie are calculated by measuring the distance between newly occurring deaths and their nearest neighbor of any previous deaths, for example death 2 to death 1, or distance a. The mean distance of all deaths in a movie is calculated as distances (a+b+c+ . . . +n)/n.\nIt was observed that ferroptosis involves the spreading of cell death between adjacent cells in cell culture in wave-like or synchronous patterns. […] To study cell death spreading, a computational analysis was designed that allows for quantification of the random or non-random nature of observed patterns of cell death in a population. As shown in FIGS. 2A-2D, this analysis utilizes time-lapse microscopic imaging of cell death, for cells cultured in the presence of Sytox green or Sytox orange dyes (or propidium iodide), which enter the nucleus of necrotic cells and emit green or red fluorescence (FIG. 2A). […] In addition to the actual data set calculated for each field of view, randomized trials are then also performed 1000 times for each microscopic field, to generate a random set of possible mean distances that account for the particular arrangements of cells in each field (FIG. 2B). […]"}},
  "data": [
    {"smiles": "Clc1cccc(CN=C2Nc3ccccc3NC23CCNCC3)c1", "note": "[liproxstatin-1]", "values": [
      {"measurement": "spreading of cell rounding / morphological changes", "setting": "[1]; FAC and BSO (400 μM) in the presence of the named agent", "result": "blocked"},
      {"measurement": "wave-like spreading of ferroptosis", "setting": "[1]; FAC and BSO, agent added after initiation of ferroptosis", "result": "disrupted wave-like spreading"}
    ]},
    {"smiles": "COc1nccnc1NS(=O)(=O)c1ccc(NC(=O)/C=C/c2ccc([N+](=O)[O-])s2)cc1", "note": "[necrosulfonamide]", "values": [
      {"measurement": "ferroptotic cell rupture", "setting": "[2]; treatment with inhibitor of MLKL", "result": "did not affect ferroptotic cell rupture"}
    ]},
    {"smiles": "OO", "note": "[hydrogen peroxide]", "values": [
      {"measurement": "regulation of necrotic cell death by PEG1450 or PEG3350", "setting": "HT1080 cells", "result": "did not involve similar regulation"}
    ]},
    {"smiles": "OC[C@H]1O[C@@](CO)(O[C@H]2O[C@H](CO)[C@@H](O)[C@H](O)[C@H]2O)[C@@H](O)[C@@H]1O", "note": "[sucrose]", "values": [
      {"measurement": "cell lysis / cell rupture (release of lactate dehydrogenase, LDH)", "setting": "[2]", "result": "did not"}
    ]},
    {"smiles": "CNC(=O)c1ccc(N2C(=S)N(c3ccc(C#N)c(C(F)(F)F)c3)C(=O)C2(C)C)cc1F", "note": "[enzalutamide]", "values": [
      {"measurement": "AR expression (Western blot)", "setting": "[3]", "result": "transient increase in AR expression is also observed from Day 7 to Day 10"},
      {"measurement": "PSMA expression (Western blot)", "setting": "[3]", "result": "increase in PSMA expression occurs on, or around, Day 7 of exposure"},
      {"measurement": "PSMA expression in LNCAP xenografts", "setting": "LNCAP xenografts", "result": "increase in PSMA expression at Day 5"},
      {"measurement": "PSMA expression in tumor sections (immunofluorescence staining)", "setting": "LNCAP xenografts", "result": "increase in PSMA expression at Day 5"},
      {"measurement": "AR expression (Western blot)", "setting": "[4]", "result": "clear increase in AR expression is observed from Day 3 onward"},
      {"measurement": "PSMA expression (Western blot)", "setting": "[4]", "result": "time-dependent increase in PSMA expression"},
      {"measurement": "AR expression (Western blot)", "setting": "[5]", "result": "negative for AR across all tested time points"},
      {"measurement": "PSMA expression (Western blot)", "setting": "[5]", "result": "lack of PSMA expression at all time points"}
    ]},
    {"smiles": "C[C@@H]1C[C@@H]([C@H](O)CC2CC(=O)NC(=O)C2)C(=O)[C@@H](C)C1", "note": "[cyclohexamide]", "values": [
      {"measurement": "observed mean distance between cell deaths versus random trials", "setting": "[6]", "result": "falls within the random trials"}
    ]},
    {"smiles": "OC[C@H]1O[C@H](OC[C@H]2O[C@H](O[C@]3(CO)O[C@H](CO)[C@@H](O)[C@@H]3O)[C@H](O)[C@@H](O)[C@@H]2O)[C@H](O)[C@@H](O)[C@H]1O", "note": "[raffinose]", "values": [
      {"measurement": "cell lysis / cell rupture (release of lactate dehydrogenase, LDH)", "setting": "[2]", "result": "did not"}
    ]}
  ]
}
